The record followed here is ChEMBL document CHEMBL1156457, “Mechanisms for picrotoxinin and picrotin blocks of alpha2 homomeric glycine receptors” (J Biol Chem, 2007).

Experiment [1] deals with T1, Glycine receptor subunit alpha-2 (Rattus norvegicus) (UniProt P22771).
T1 sequence (whole entry): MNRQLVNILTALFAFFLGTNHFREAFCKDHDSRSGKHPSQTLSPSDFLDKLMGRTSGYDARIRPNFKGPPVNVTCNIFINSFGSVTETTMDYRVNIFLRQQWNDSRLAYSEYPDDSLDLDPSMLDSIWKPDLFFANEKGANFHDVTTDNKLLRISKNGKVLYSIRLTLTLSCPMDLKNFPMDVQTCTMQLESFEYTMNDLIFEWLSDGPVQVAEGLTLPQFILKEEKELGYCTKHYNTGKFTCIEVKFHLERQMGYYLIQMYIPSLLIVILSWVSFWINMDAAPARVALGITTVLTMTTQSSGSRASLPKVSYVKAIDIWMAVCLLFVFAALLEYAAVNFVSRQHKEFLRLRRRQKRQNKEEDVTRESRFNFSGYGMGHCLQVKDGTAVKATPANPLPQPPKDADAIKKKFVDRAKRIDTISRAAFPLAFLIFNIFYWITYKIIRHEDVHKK
As to the kind of experiment: Inhibition of rat alpha2 homomeric glycine receptor expressed in CHO cells assessed as inhibition of 300 uM glycine-elicited current at 300 uM by outside patch clamp technique.

Experiment [2] has as its target T2, Glycine receptor subunit alpha-2 (Rattus norvegicus, UniProt P22771).
T2 sequence (P22771 whole entry): T1 sequence (whole entry)
As to the kind of experiment: Inhibition of rat alpha2 homomeric glycine receptor expressed in CHO cells assessed as inhibition of 300 uM glycine-elicited current by outside patch clamp technique. The experiment is classed as cell-based.

Experiment [3] concerns the target T1, Glycine receptor subunit alpha-2 (Rattus norvegicus). As to the kind of experiment: Effect on rat alpha2 homomeric glycine receptor expressed in CHO cells assessed as glycine-evoked response at 100 uM administered before glycine challenge by outside patch clamp technique. Format: cell-based.
Experiment [4] shares this target. As to the kind of experiment: Inhibition of rat alpha2 homomeric glycine receptor expressed in CHO cells assessed as inhibition of 300 uM glycine-elicited current at 100 uM at -50 mV voltage by outside patch clamp technique. Format: cell-based. (In general: In patch-clamp work, channel activity is measured electrically.)
Experiment [5] has the same target. The experiment in a line: Effect on rat alpha2 homomeric glycine receptor expressed in CHO cells assessed as decrease in activation phase of glycine response at 30 uM by outside patch clamp technique. The experiment is classed as cell-based.
For experiment [6] the target is unchanged. The experiment in a line: Effect on rat alpha2 homomeric glycine receptor expressed in CHO cells assessed as decrease in channel mean open time by outside patch clamp technique relative to control. Format: cell-based.
Experiment [7] has the same target. The experiment in a line: Effect on rat alpha2 homomeric glycine receptor expressed in CHO cells assessed as change in relative area of rising time constant of glycine response at 300 uM by outside patch clamp technique. Format: cell-based.
Experiment [8] shares this target. The experiment in a line: Inhibition of rat alpha2 homomeric glycine receptor expressed in CHO cells assessed as inhibition of 300 uM glycine-elicited current at 3 uM by outside patch clamp technique. The experiment is classed as cell-based.
The target is the same in experiment [9]. The experiment in a line: Effect on rat alpha2 homomeric glycine receptor expressed in CHO cells assessed as decrease in channel mean open time at 30 uM by outside patch clamp technique relative to control. Format: cell-based.
The target is the same in experiment [10]. The experiment in a line: Inhibition of rat alpha2 homomeric glycine receptor expressed in CHO cells assessed as inhibition of 300 uM glycine-elicited current at 100 uM at +50 mV voltage by outside patch clamp technique. Format: cell-based.
For experiment [11] the target is unchanged. The experiment in a line: Effect on rat alpha2 homomeric glycine receptor expressed in CHO cells assessed as shortened deactivation phase of glycine-evoked response at 100 uM administered before glycine challenge by outside patch clamp technique. The experiment is classed as cell-based.
For experiment [12] the target is unchanged. As to the kind of experiment: Effect on rat alpha2 homomeric glycine receptor expressed in CHO cells assessed as flickering of channel in response to glycine-pulse at 30 uM by outside patch clamp technique. The experiment is classed as cell-based.
The target is the same in experiment [13]. The experiment in a line: Inhibition of rat alpha2 homomeric glycine receptor expressed in CHO cells assessed as inhibition of 30 mM glycine-elicited current at 300 uM by outside patch clamp technique.
Experiment [14] shares this target. As to the kind of experiment: Effect on rat alpha2 homomeric glycine receptor expressed in CHO cells assessed as change in rising time constant of glycine response at 300 uM by outside patch clamp technique. Format: cell-based.
For experiment [15] the target is unchanged. As to the kind of experiment: Effect on rat alpha2 homomeric glycine receptor expressed in CHO cells assessed as shortened single receptor burst opening in response to glycine-pulse at 30 uM by outside patch clamp technique. Format: cell-based.
Experiment [16] has the same target. The experiment in a line: Inhibition of rat alpha2 homomeric glycine receptor expressed in CHO cells assessed as inhibition of deactivation time constant by outside patch clamp technique. Format: cell-based.
Experiment [17] has the same target. The experiment in a line: Effect on rat alpha2 homomeric glycine receptor expressed in CHO cells assessed as decrease in activation phase of glycine response at 10 uM by outside patch clamp technique. The experiment is classed as cell-based.
For experiment [18] the target is unchanged. As to the kind of experiment: Effect on rat alpha2 homomeric glycine receptor expressed in CHO cells assessed as shortened single receptor burst opening in response to glycine-pulse at 10 uM by outside patch clamp technique. The experiment is classed as cell-based.
For experiment [19] the target is unchanged. As to the kind of experiment: Effect on rat alpha2 homomeric glycine receptor expressed in CHO cells assessed as shortened deactivation phase of glycine-evoked response at 10 uM administered before glycine challenge by outside patch clamp technique. Format: cell-based.
Experiment [20] shares this target. As to the kind of experiment: Effect on rat alpha2 homomeric glycine receptor expressed in CHO cells assessed as glycine-evoked response at 10 uM administered before glycine challenge by outside patch clamp technique. The experiment is classed as cell-based.
Experiment [21] has the same target. The experiment in a line: Effect on rat alpha2 homomeric glycine receptor expressed in CHO cells assessed as change in rising time constant of glycine response at 10 uM by outside patch clamp technique. Format: cell-based.
The target is the same in experiment [22]. As to the kind of experiment: Inhibition of rat alpha2 homomeric glycine receptor expressed in CHO cells assessed as inhibition of 30 mM glycine-elicited current at 10 uM by outside patch clamp technique.
Experiment [23] has the same target. The experiment in a line: Effect on rat alpha2 homomeric glycine receptor expressed in CHO cells assessed as decrease in glycine-evoked recovery time constant at 10 uM by outside patch clamp technique. The experiment is classed as cell-based.
The target is the same in experiment [24]. The experiment in a line: Inhibition of rat alpha2 homomeric glycine receptor expressed in CHO cells assessed as inhibition of 300 uM glycine-elicited current at 10 uM by outside patch clamp technique. The experiment is classed as cell-based.
Experiment [25] has the same target. The experiment in a line: (§1) Inhibition of rat alpha2 homomeric glycine receptor expressed in CHO cells assessed as inhibition of 300 uM glycine-elicited current at 3 uM at +50 mV voltage by outside patch clamp technique. Format: cell-based.
Experiment [26] has the same target. Described as §1. The experiment is classed as cell-based. This is another data set of the same source.
For experiment [27] the target is unchanged. The experiment in a line: Effect on rat alpha2 homomeric glycine receptor expressed in CHO cells assessed as change in relative area of rising time constant of glycine response at 10 uM by outside patch clamp technique. The experiment is classed as cell-based.
Experiment [28] shares this target. As to the kind of experiment: Effect on rat alpha2 homomeric glycine receptor expressed in CHO cells assessed as decrease in channel mean open time at 10 uM by outside patch clamp technique relative to control. The experiment is classed as cell-based.

Activity calls are given as the source filed them. The rule behind the calls is not given here.

Regarding `CC(C)(O)[C@@H]1[C@H]2OC(=O)[C@@H]1[C@]1(O)C[C@H]3O[C@]34C(=O)O[C@H]2[C@]14C` [PICROTIN], the inhibition was 63.7% in experiment [1], 3.4% in experiment [8] and 36.3% in experiment [13]. For the same molecule, in [2], the 50% inhibitory concentration (IC50) stood at 117 µM. The result in experiment [3], in [4], in experiment [5], in [10], in [11] and in [12] was Active. In addition, the outcome in [15] was Active. Moreover, the Activity result in [6] is “Dose-dependent effect”; in experiment [7] it was 8.9%; in [9], 2.9 ms; in experiment [14] it was 91.1%; in experiment [16] it was “Dose-dependent effect”.

Regarding `C=C(C)[C@@H]1[C@H]2OC(=O)[C@@H]1[C@]1(O)C[C@H]3O[C@]34C(=O)O[C@H]2[C@]14C` [PICROTOXININ], the outcome in [17], in experiment [18], in experiment [19], in [20], in experiment [25] and in experiment [26] was Active. The concentration for half-maximal inhibition (IC50) in experiment [2] is 2.4 µM. Also, the Activity in experiment [21] is 81%; in [23] it was 17.6 ms; in experiment [6], “Dose-dependent effect”; in [27], 19%; in experiment [28], 9.3 ms; in experiment [16] it was “Dose-dependent effect”. Moreover, the results for the inhibition in [22], in experiment [24] and in experiment [8] were 47.4%, 78.9% and 50%, respectively.

The term inhibition denotes the percentage by which the read-out fell short of the control. For orientation: IC50 means the midpoint of a concentration-inhibition curve.
